Results: US6506607B1, “Methods and compositions for the identification and assessment of prostate cancer therapies and the diagnosis of prostate cancer” (Millennium Pharmaceuticals, Inc., priority 1997, dated 2003)

Tested on: LNCaP cells
Test: Gene expression in bicalutamide-treated vs untreated LNCaP cells (subtraction library, Gene Expression Micro-Array)
Type: cell-based
Conditions: 25 hours

CC(O)(CS(=O)(=O)c1ccc(F)cc1)C(=O)Nc1ccc(C#N)c(C(F)(F)F)c1 (stereo not shown) [bicalutamide, Bicalutamide]
FOLD INCREASE IN mRNA: Cyclin-dependent kinase inhibitor 1 {268652} (SEQ ID NO 41, 100 nM bicalutamide): 4.5 fold
FOLD INCREASE IN mRNA: Activating transcription factor 3 (ATF3) {428248} (SEQ ID NO 42, 100 nM bicalutamide): 11.5 fold
FOLD INCREASE IN mRNA: Defender against cell death 1 {488974} (SEQ ID NO 43, 100 nM bicalutamide): 2.9 fold
FOLD INCREASE IN mRNA: CLCN3 {346749} (SEQ ID NO 46, 100 nM bicalutamide): 2.4 fold
FOLD INCREASE IN mRNA: Phosphotyrosine independent ligand p62 for the Lck SH2 domain {510278} (SEQ ID NO 47, 100 nM bicalutamide): 5.8 fold
FOLD INCREASE IN mRNA: Seryl-tRNA synthetase {510431} (SEQ ID NO 48, 100 nM bicalutamide): 4.3 fold
FOLD INCREASE IN mRNA: D53 (hD53) {510461} (SEQ ID NO 49, 100 nM bicalutamide): 3.8 fold
FOLD INCREASE IN mRNA: Unknown human protein {512334} (SEQ ID NO 50, 100 nM bicalutamide): 3.5 fold
FOLD INCREASE IN mRNA: Thioredoxin reductase {510377} (SEQ ID NO 51, 100 nM bicalutamide): 2.6 fold
FOLD INCREASE IN mRNA: ORF and HepG2 (identical sequence) {510258} (SEQ ID NO 53, 100 nM bicalutamide): 5.3 fold
FOLD INCREASE IN mRNA: 4F2 cell-surface antigen heavy chain {510504} (SEQ ID NO 54, 100 nM bicalutamide): 8.1 fold
FOLD INCREASE IN mRNA: Asparagine synthetase {510206} (SEQ ID NO 55, 100 nM bicalutamide): 2.8 fold
FOLD INCREASE IN mRNA: pM5 {509550} (SEQ ID NO 56, 100 nM bicalutamide): 2.3 fold
FOLD INCREASE IN mRNA: Archain {488510} (SEQ ID NO 57, 100 nM bicalutamide): 2.3 fold
FOLD INCREASE IN mRNA: Gravin {488106} (SEQ ID NO 58, 100 nM bicalutamide): 2.8 fold
FOLD INCREASE IN mRNA: Signal recognition particle receptor alpha subunit {358710} (SEQ ID NO 60, 100 nM bicalutamide): 2.6 fold
FOLD INCREASE IN mRNA: Phosphoenolpyruvate carboxykinase {363272} (SEQ ID NO 61, 100 nM bicalutamide): 3.4 fold
FOLD INCREASE IN mRNA: Protein translation factor SUI1 homolog {365542} (SEQ ID NO 62, 100 nM bicalutamide): 2.7 fold
FOLD INCREASE IN mRNA: NADPH-flavin reductase {365775} (SEQ ID NO 63, 100 nM bicalutamide): 3.7 fold
FOLD INCREASE IN mRNA: Peptidyl-prolyl CIS-trans isomerase B precursor {376399} (SEQ ID NO 64, 100 nM bicalutamide): 2.5 fold
FOLD INCREASE IN mRNA: Aspartate aminotransferase {417270} (SEQ ID NO 65, 100 nM bicalutamide): 3.1 fold
FOLD INCREASE IN mRNA: OS-9 precursor {417136} (SEQ ID NO 66, 100 nM bicalutamide): 2.7 fold
FOLD INCREASE IN mRNA: KIAA0025 and PIGHEP3 homologous region {418227} (SEQ ID NO 67, 100 nM bicalutamide): 5.3 fold
FOLD INCREASE IN mRNA: Glucosamine-fructose-6-phosphate aminotransferase {469633} (SEQ ID NO 68, 100 nM bicalutamide): 3.2 fold
FOLD INCREASE IN mRNA: ADP-ribosylation factor 1 {471384} (SEQ ID NO 69, 100 nM bicalutamide): 3.1 fold
FOLD INCREASE IN mRNA: Glycyl-tRNA synthetase {471164} (SEQ ID NO 70, 100 nM bicalutamide): 3.6 fold
FOLD INCREASE IN mRNA: Prion protein (PrP) {470074} (SEQ ID NO 71, 100 nM bicalutamide): 3.1 fold
FOLD INCREASE IN mRNA: Mitochondrial serine hydroxymethyltransferase {344080} (SEQ ID NO 72, 100 nM bicalutamide): 2.4 fold
FOLD INCREASE IN mRNA: Alanyl-TRNA synthetase {343998} (SEQ ID NO 73, 100 nM bicalutamide): 3.8 fold
FOLD INCREASE IN mRNA: Translocon-associated protein {324179} (SEQ ID NO 76, 100 nM bicalutamide): 2.5 fold
FOLD INCREASE IN mRNA: Translation initiation factor 5 (elF5) {299843} (SEQ ID NO 78, 100 nM bicalutamide): 2.3 fold
FOLD INCREASE IN mRNA: RESTIN {291620} (SEQ ID NO 79, 100 nM bicalutamide): 2.3 fold
FOLD INCREASE IN mRNA: Transcription elongation factor S-II {257458} (SEQ ID NO 80, 100 nM bicalutamide): 2.8 fold
FOLD INCREASE IN mRNA: Human clone 137308 {252491} (SEQ ID NO 81, 100 nM bicalutamide): 2.6 fold
FOLD INCREASE IN mRNA: Glutamate-cysteine ligase regulatory subunit {245939} (SEQ ID NO 82, 100 nM bicalutamide): 4.1 fold
FOLD INCREASE IN mRNA: Fatty aldehyde dehydrogenase {208950} (SEQ ID NO 83, 100 nM bicalutamide): 3.1 fold
FOLD INCREASE IN mRNA: MHC class I HLA-Bw58 gene {203448} (SEQ ID NO 84, 100 nM bicalutamide): 2.3 fold
FOLD INCREASE IN mRNA: Mitochondrial NDA (P)+ dependent malic enzyme {109375} (SEQ ID NO 85, 100 nM bicalutamide): 2.5 fold
FOLD INCREASE IN mRNA: GADD 153 = Growth arrest and DNA-damage inductor gene {362009} (SEQ ID NO 136, 100 nM bicalutamide): 11.1 fold
FOLD INCREASE IN mRNA: KIAA0025 gene {30476} (SEQ ID NO 137, 100 nM bicalutamide): 6.7 fold
FOLD INCREASE IN mRNA: Phosphotyrosine independent ligand p62 for the Lck SH2 domain {471392} (SEQ ID NO 138, 100 nM bicalutamide): 6.4 fold
FOLD INCREASE IN mRNA: 150 kDa oxygen-regulated protein ORP150 {486858} (SEQ ID NO 139, 100 nM bicalutamide): 5.9 fold
FOLD INCREASE IN mRNA: 78 KD Glucose regulated protein precursor {366350} (SEQ ID NO 140, 100 nM bicalutamide): 4 fold
FOLD INCREASE IN mRNA: Smad 1 {345928} (SEQ ID NO 141, 100 nM bicalutamide): 3.9 fold
FOLD INCREASE IN mRNA: EST28g11 WATM1 {486703} (SEQ ID NO 142, 100 nM bicalutamide): 3.8 fold
FOLD INCREASE IN mRNA: ESTs {322080} (SEQ ID NO 143, 100 nM bicalutamide): 3.7 fold
FOLD INCREASE IN mRNA: Seryl-tRNA sythetase {129892} (SEQ ID NO 144, 100 nM bicalutamide): 3.6 fold
FOLD INCREASE IN mRNA: HU-K4 {470677} (SEQ ID NO 145, 100 nM bicalutamide): 3.6 fold
FOLD INCREASE IN mRNA: ESTs {126530} (SEQ ID NO 146, 100 nM bicalutamide): 3.5 fold
FOLD INCREASE IN mRNA: ESTs {429327} (SEQ ID NO 147, 100 nM bicalutamide): 3.5 fold
FOLD INCREASE IN mRNA: Vascular endothelial growth factor (VEGF (165)) {488697} (SEQ ID NO 148, 100 nM bicalutamide): 3.2 fold
FOLD INCREASE IN mRNA: ESTs {50914} (SEQ ID NO 149, 100 nM bicalutamide): 3.1 fold
FOLD INCREASE IN mRNA: ESTs {279847} (SEQ ID NO 150, 100 nM bicalutamide): 3.1 fold
FOLD INCREASE IN mRNA: ESTs {361548} (SEQ ID NO 151, 100 nM bicalutamide): 3.1 fold
FOLD INCREASE IN mRNA: ESTs {364730} (SEQ ID NO 152, 100 nM bicalutamide): 3.1 fold
FOLD INCREASE IN mRNA: ESTs {470212} (SEQ ID NO 153, 100 nM bicalutamide): 3.1 fold
FOLD INCREASE IN mRNA: ESTs {471210} (SEQ ID NO 154, 100 nM bicalutamide): 3.1 fold
FOLD INCREASE IN mRNA: ESTs {289300} (SEQ ID NO 155, 100 nM bicalutamide): 3 fold
FOLD INCREASE IN mRNA: ESTs {427725} (SEQ ID NO 156, 100 nM bicalutamide): 3 fold
FOLD INCREASE IN mRNA: ESTs {428217} (SEQ ID NO 157, 100 nM bicalutamide): 2.9 fold
FOLD INCREASE IN mRNA: rfp transforming protein {485268} (SEQ ID NO 158, 100 nM bicalutamide): 2.8 fold
FOLD INCREASE IN mRNA: ESTs {487420} (SEQ ID NO 159, 100 nM bicalutamide): 2.8 fold
FOLD INCREASE IN mRNA: 60S RIBOSOMAL PROTEIN L18A {509699} (SEQ ID NO 160, 100 nM bicalutamide): 2.8 fold
FOLD INCREASE IN mRNA: ESTs {31943} (SEQ ID NO 161, 100 nM bicalutamide): 2.7 fold
FOLD INCREASE IN mRNA: ESTs {376271} (SEQ ID NO 162, 100 nM bicalutamide): 2.7 fold
FOLD INCREASE IN mRNA: ESTs {469642} (SEQ ID NO 163, 100 nM bicalutamide): 2.7 fold
FOLD INCREASE IN mRNA: ESTs {471826} (SEQ ID NO 164, 100 nM bicalutamide): 2.7 fold
FOLD INCREASE IN mRNA: KIAA0262 {485008} (SEQ ID NO 165, 100 nM bicalutamide): 2.7 fold
FOLD INCREASE IN mRNA: ESTs {292082} (SEQ ID NO 166, 100 nM bicalutamide): 2.6 fold
FOLD INCREASE IN mRNA: ESTs {365557} (SEQ ID NO 167, 100 nM bicalutamide): 2.6 fold
FOLD INCREASE IN mRNA: Immunogloblin light chain (lambda) {119218} (SEQ ID NO 168, 100 nM bicalutamide): 2.5 fold
FOLD INCREASE IN mRNA: ELP-1 {147979} (SEQ ID NO 169, 100 nM bicalutamide): 2.5 fold
FOLD INCREASE IN mRNA: TRAMP protein {149355} (SEQ ID NO 170, 100 nM bicalutamide): 2.5 fold
FOLD INCREASE IN mRNA: ESTs {294078} (SEQ ID NO 171, 100 nM bicalutamide): 2.5 fold
FOLD INCREASE IN mRNA: ESTs {291005} (SEQ ID NO 172, 100 nM bicalutamide): 2.5 fold
FOLD INCREASE IN mRNA: ESTs {365907} (SEQ ID NO 173, 100 nM bicalutamide): 2.5 fold
FOLD INCREASE IN mRNA: ESTs {427801} (SEQ ID NO 174, 100 nM bicalutamide): 2.5 fold
FOLD INCREASE IN mRNA: ESTs {469515} (SEQ ID NO 175, 100 nM bicalutamide): 2.5 fold
FOLD INCREASE IN mRNA: Tral mRNA for human homologue of murine tumor rejection antigen gp96 {509486} (SEQ ID NO 176, 100 nM bicalutamide): 2.5 fold
FOLD INCREASE IN mRNA: Biotin-[propionyl-CoA-carboxylase (ATP-hydrolysing)] {176590} (SEQ ID NO 177, 100 nM bicalutamide): 2.4 fold
FOLD INCREASE IN mRNA: Tral mRNA for human homologue of murine tumor rejection antigen gp96 {242829} (SEQ ID NO 178, 100 nM bicalutamide): 2.4 fold
FOLD INCREASE IN mRNA: Cancellous bone osteoblast mRNA for GS3786 {486005} (SEQ ID NO 179, 100 nM bicalutamide): 2.4 fold
FOLD INCREASE IN mRNA: ESTs {509583} (SEQ ID NO 180, 100 nM bicalutamide): 2.4 fold
FOLD INCREASE IN mRNA: ESTs {44551} (SEQ ID NO 181, 100 nM bicalutamide): 2.3 fold
FOLD INCREASE IN mRNA: ESTs {245853} (SEQ ID NO 182, 100 nM bicalutamide): 2.3 fold
FOLD INCREASE IN mRNA: ESTs {306075} (SEQ ID NO 183, 100 nM bicalutamide): 2.3 fold
FOLD INCREASE IN mRNA: ESTs {322143} (SEQ ID NO 184, 100 nM bicalutamide): 2.3 fold
FOLD INCREASE IN mRNA: ESTs {322749} (SEQ ID NO 185, 100 nM bicalutamide): 2.3 fold
FOLD INCREASE IN mRNA: ESTs {359877} (SEQ ID NO 186, 100 nM bicalutamide): 2.3 fold
FOLD INCREASE IN mRNA: ESTs {360446} (SEQ ID NO 187, 100 nM bicalutamide): 2.3 fold
FOLD INCREASE IN mRNA: ESTs {360789} (SEQ ID NO 188, 100 nM bicalutamide): 2.3 fold
FOLD INCREASE IN mRNA: Protein tyrosine kinase t-Rorl {418257} (SEQ ID NO 189, 100 nM bicalutamide): 2.3 fold
FOLD INCREASE IN mRNA: ESTs {486712} (SEQ ID NO 190, 100 nM bicalutamide): 2.3 fold
FOLD INCREASE IN mRNA: ESTs {489106} (SEQ ID NO 191, 100 nM bicalutamide): 2.3 fold
